Our source for the MIC values is ChEMBL document CHEMBL1140184, “Synthesis and structure-activity relationship studies of highly potent novel oxazolidinone antibacterials” (2008).

Holding throughout (format): functional
Assay [1] has as its system Staphylococcus aureus. The assay is described as follows: Antibacterial activity against methicillin-sensitive Staphylococcus aureus Smith by agar dilution method. Background: In agar dilution the substance is mixed into plates at graded concentrations.
Assay [2] concerns Staphylococcus aureus. As to the kind of experiment: Antibacterial activity against methicillin-resistant Staphylococcus aureus TK7 by agar dilution method.
A further assay deals with Enterococcus faecium. As to the kind of experiment: Antibacterial activity against vancomycin-resistant Enterococcus faecium A2280 by agar dilution method.
Assay [3] concerns Streptococcus pneumoniae. As to the kind of experiment: Antibacterial activity against penicillin-susceptible Streptococcus pneumoniae IID553 by agar dilution method.
The test system of assay [4] is Streptococcus pneumoniae. As to the kind of experiment: Antibacterial activity against penicillin-resistant Streptococcus pneumoniae PR44 by agar dilution method.
In a further assay the test system is Haemophilus influenzae. As to the kind of experiment: Antibacterial activity against Haemophilus influenzae IID983 by agar dilution method.

In brackets after ≈: the same amount, converted by molar mass.

As for `NC(=O)[C@]1(c2ccc(-c3ccc(N4C[C@H](Cn5ccnn5)OC4=O)cc3F)cn2)[C@@H]2CNC[C@@H]21`, the MIC with Staphylococcus aureus [1] was 2 µg/mL (≈ 4.32 µM); with Staphylococcus aureus [2], 2 µg/mL (≈ 4.32 µM); with Enterococcus faecium, 4 µg/mL (≈ 8.63 µM); with Streptococcus pneumoniae [3], 1 µg/mL (≈ 2.16 µM); against Streptococcus pneumoniae [4], 0.5 µg/mL (≈ 1.08 µM).
For the compound `N#C[C@]1(c2ccc(-c3ccc(N4C[C@H](Cn5ccnn5)OC4=O)cc3F)cn2)[C@@H]2CS(=O)(=O)C[C@@H]21`, the MIC against Staphylococcus aureus [1] was found to be 0.06 µg/mL (≈ 0.121 µM); against Staphylococcus aureus [2] it was 0.125 µg/mL (≈ 0.253 µM); against Haemophilus influenzae it was 4 µg/mL (≈ 8.09 µM); with Enterococcus faecium, 0.06 µg/mL (≈ 0.121 µM); with Streptococcus pneumoniae [3], 0.125 µg/mL (≈ 0.253 µM); against Streptococcus pneumoniae [4], 0.06 µg/mL (≈ 0.121 µM).
For the compound `N#C[C@]1(c2ccc(-c3ccc(N4C[C@H](Cn5ccnn5)OC4=O)cc3)cn2)[C@@H]2CNC[C@@H]21`, the MIC came to 0.125 µg/mL (≈ 0.292 µM) in the assay on Staphylococcus aureus [1]; 0.125 µg/mL (≈ 0.292 µM) in the assay with Staphylococcus aureus [2]; 2 µg/mL (≈ 4.68 µM) with Haemophilus influenzae; 0.25 µg/mL (≈ 0.585 µM) in the assay with Enterococcus faecium; 0.125 µg/mL (≈ 0.292 µM) with Streptococcus pneumoniae [3]; 0.125 µg/mL (≈ 0.292 µM) in the assay with Streptococcus pneumoniae [4].
For `N#C[C@]1(c2ccc(-c3c(F)cc(N4C[C@H](Cn5ccnn5)OC4=O)cc3F)cn2)[C@@H]2C[S+]([O-])C[C@@H]21` (some centres undefined), the MIC in the assay with Staphylococcus aureus [1] came out at 0.06 µg/mL (≈ 0.121 µM); in the assay on Staphylococcus aureus [2], 0.06 µg/mL (≈ 0.121 µM); with Haemophilus influenzae, 8 µg/mL (≈ 16.1 µM); with Enterococcus faecium it was 0.125 µg/mL (≈ 0.252 µM); with Streptococcus pneumoniae [3], 0.125 µg/mL (≈ 0.252 µM); in the assay with Streptococcus pneumoniae [4], 0.125 µg/mL (≈ 0.252 µM).
`N#C[C@]1(c2ccc(-c3c(F)cc(N4C[C@H](Cn5ccnn5)OC4=O)cc3F)cn2)[C@@H]2CS(=O)(=O)C[C@@H]21`: the MIC with Staphylococcus aureus [1] came to 0.06 µg/mL (≈ 0.117 µM); in the assay on Staphylococcus aureus [2], 0.06 µg/mL (≈ 0.117 µM); in the assay with Haemophilus influenzae, 4 µg/mL (≈ 7.8 µM); against Enterococcus faecium, 0.125 µg/mL (≈ 0.244 µM); in the assay on Streptococcus pneumoniae [3], 0.06 µg/mL (≈ 0.117 µM); in the assay with Streptococcus pneumoniae [4] it was 0.06 µg/mL (≈ 0.117 µM).
Take `N#C[C@]1(c2ccc(-c3c(F)cc(N4C[C@H](Cn5ccnn5)OC4=O)cc3F)cn2)[C@@H]2CSC[C@@H]21`: the MIC in the assay with Staphylococcus aureus [1] is 0.06 µg/mL (≈ 0.125 µM); in the assay on Staphylococcus aureus [2], 0.06 µg/mL (≈ 0.125 µM); against Haemophilus influenzae it was over 16 µg/mL; in the assay with Enterococcus faecium, 0.5 µg/mL (≈ 1.04 µM); against Streptococcus pneumoniae [3], 0.25 µg/mL (≈ 0.52 µM); against Streptococcus pneumoniae [4], 0.25 µg/mL (≈ 0.52 µM).
On to `N#C[C@]1(c2ccc(-c3ccc(N4C[C@H](Cn5ccnn5)OC4=O)cc3)cn2)[C@@H]2C[S+]([O-])C[C@@H]21` (some centres undefined), for which the MIC is 0.125 µg/mL (≈ 0.271 µM) in the assay on Staphylococcus aureus [1]; 0.125 µg/mL (≈ 0.271 µM) in the assay on Staphylococcus aureus [2]; 8 µg/mL (≈ 17.4 µM) in the assay on Haemophilus influenzae; 0.25 µg/mL (≈ 0.543 µM) with Enterococcus faecium; 0.125 µg/mL (≈ 0.271 µM) against Streptococcus pneumoniae [3]; 0.125 µg/mL (≈ 0.271 µM) against Streptococcus pneumoniae [4].
Take `N#C[C@]1(c2ccc(-c3ccc(N4C[C@H](Cn5ccnn5)OC4=O)cc3F)cn2)[C@@H]2CSC[C@@H]21`: the MIC against Staphylococcus aureus [1] was 0.06 µg/mL (≈ 0.13 µM); with Staphylococcus aureus [2], 0.06 µg/mL (≈ 0.13 µM); against Haemophilus influenzae it was over 2 µg/mL; in the assay with Enterococcus faecium, 0.25 µg/mL (≈ 0.541 µM); in the assay with Streptococcus pneumoniae [3] it was 0.125 µg/mL (≈ 0.27 µM); against Streptococcus pneumoniae [4], 0.06 µg/mL (≈ 0.13 µM).
On to `N#C[C@]1(c2ccc(-c3ccc(N4C[C@H](Cn5ccnn5)OC4=O)cc3F)cn2)[C@@H]2C[S+]([O-])C[C@@H]21` (some centres undefined), for which the MIC was determined as 0.06 µg/mL (≈ 0.125 µM) with Staphylococcus aureus [1]; 0.06 µg/mL (≈ 0.125 µM) against Staphylococcus aureus [2]; 4 µg/mL (≈ 8.36 µM) against Haemophilus influenzae; 0.125 µg/mL (≈ 0.261 µM) against Enterococcus faecium; 0.06 µg/mL (≈ 0.125 µM) with Streptococcus pneumoniae [3]; 0.06 µg/mL (≈ 0.125 µM) against Streptococcus pneumoniae [4].
With `N#C[C@]1(c2ccc(-c3ccc(N4C[C@H](Cn5ccnn5)OC4=O)cc3)cn2)[C@@H]2CSC[C@@H]21`, the MIC stood at 0.06 µg/mL (≈ 0.135 µM) against Staphylococcus aureus [1]; 0.06 µg/mL (≈ 0.135 µM) in the assay with Staphylococcus aureus [2]; 8 µg/mL (≈ 18 µM) in the assay on Haemophilus influenzae; 0.25 µg/mL (≈ 0.562 µM) with Enterococcus faecium; 0.125 µg/mL (≈ 0.281 µM) in the assay with Streptococcus pneumoniae [3]; 0.06 µg/mL (≈ 0.135 µM) in the assay on Streptococcus pneumoniae [4].
As to `N#C[C@]1(c2ccc(-c3ccc(N4C[C@H](Cn5ccnn5)OC4=O)cc3)cn2)[C@@H]2CS(=O)(=O)C[C@@H]21`, the MIC against Staphylococcus aureus [1] was found to be 0.06 µg/mL (≈ 0.126 µM); in the assay with Staphylococcus aureus [2] it was 0.06 µg/mL (≈ 0.126 µM); against Haemophilus influenzae, 4 µg/mL (≈ 8.39 µM); with Enterococcus faecium, 0.125 µg/mL (≈ 0.262 µM); against Streptococcus pneumoniae [3] it was 0.06 µg/mL (≈ 0.126 µM); against Streptococcus pneumoniae [4], 0.06 µg/mL (≈ 0.126 µM).
Consider `CC(=O)NC[C@H]1CN(c2ccc(N3CCOCC3)c(F)c2)C(=O)O1` [LINEZOLID], for which the MIC against Staphylococcus aureus [1] was found to be 1 µg/mL (≈ 2.96 µM); in the assay with Staphylococcus aureus [2], 1 µg/mL (≈ 2.96 µM); with Haemophilus influenzae, 16 µg/mL (≈ 47.4 µM); in the assay with Enterococcus faecium, 2 µg/mL (≈ 5.93 µM).
